# In publication PMC2680423 (Cell calcium, 2009):
# Where two headings read alike, the source gives them in different places.
# Legend:
# Drosophila TRPL channel [1] = target: T1, Drosophila TRPL channel (Drosophila melanogaster, UniProt P48994); assay: Whole cell patch clamp of TRPL channels expressed in S2 cells; format: cell-based; conditions: for TRPL Activation/Inhibition: Table 1, TRPL expressed in S2 cells; for Reversibility of effect on TRPL channel: washout, S2 cells
# T1 sequence (P48994 1-1124): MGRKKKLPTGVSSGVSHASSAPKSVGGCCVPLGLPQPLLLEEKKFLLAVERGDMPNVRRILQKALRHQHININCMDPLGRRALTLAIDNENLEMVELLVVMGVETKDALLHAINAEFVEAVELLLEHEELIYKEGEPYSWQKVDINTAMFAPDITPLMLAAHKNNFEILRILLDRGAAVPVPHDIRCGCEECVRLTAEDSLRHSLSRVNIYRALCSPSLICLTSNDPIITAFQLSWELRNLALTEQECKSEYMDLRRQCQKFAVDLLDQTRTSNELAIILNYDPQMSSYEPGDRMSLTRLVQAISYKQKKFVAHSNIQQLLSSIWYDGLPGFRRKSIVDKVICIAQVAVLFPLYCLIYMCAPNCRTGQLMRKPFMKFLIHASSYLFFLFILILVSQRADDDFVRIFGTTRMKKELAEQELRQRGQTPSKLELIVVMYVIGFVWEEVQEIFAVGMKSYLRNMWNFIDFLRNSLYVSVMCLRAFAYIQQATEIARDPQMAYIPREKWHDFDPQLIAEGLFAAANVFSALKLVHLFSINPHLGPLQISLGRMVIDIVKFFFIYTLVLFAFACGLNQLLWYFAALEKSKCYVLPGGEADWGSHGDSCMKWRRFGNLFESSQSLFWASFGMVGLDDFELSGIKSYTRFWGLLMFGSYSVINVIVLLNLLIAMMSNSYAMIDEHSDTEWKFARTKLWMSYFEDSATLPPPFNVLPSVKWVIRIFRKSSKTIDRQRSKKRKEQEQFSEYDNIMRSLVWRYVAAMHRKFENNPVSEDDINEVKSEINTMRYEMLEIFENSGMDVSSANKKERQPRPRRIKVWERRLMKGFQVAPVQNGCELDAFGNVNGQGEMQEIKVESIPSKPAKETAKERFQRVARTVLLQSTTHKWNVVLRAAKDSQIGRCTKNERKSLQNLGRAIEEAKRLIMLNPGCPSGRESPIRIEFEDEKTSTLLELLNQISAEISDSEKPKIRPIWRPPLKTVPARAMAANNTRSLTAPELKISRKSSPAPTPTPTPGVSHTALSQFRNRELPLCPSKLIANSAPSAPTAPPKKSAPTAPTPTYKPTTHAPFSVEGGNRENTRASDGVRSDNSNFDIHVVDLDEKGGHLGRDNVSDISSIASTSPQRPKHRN
# [2] = system: S2 cells (TRPL not expressed); format: cell-based, Drosophila; conditions: control S2 cells
# [3] = target: TRPM7-GFP expressed in hippocampal neurons (Mus musculus, UniProt Q923J1); assay: Synaptic vesicle release; format: cell-based; conditions: 500μM
# Sequence of TRPM7-GFP expressed in hippocampal neurons (Q923J1 whole entry): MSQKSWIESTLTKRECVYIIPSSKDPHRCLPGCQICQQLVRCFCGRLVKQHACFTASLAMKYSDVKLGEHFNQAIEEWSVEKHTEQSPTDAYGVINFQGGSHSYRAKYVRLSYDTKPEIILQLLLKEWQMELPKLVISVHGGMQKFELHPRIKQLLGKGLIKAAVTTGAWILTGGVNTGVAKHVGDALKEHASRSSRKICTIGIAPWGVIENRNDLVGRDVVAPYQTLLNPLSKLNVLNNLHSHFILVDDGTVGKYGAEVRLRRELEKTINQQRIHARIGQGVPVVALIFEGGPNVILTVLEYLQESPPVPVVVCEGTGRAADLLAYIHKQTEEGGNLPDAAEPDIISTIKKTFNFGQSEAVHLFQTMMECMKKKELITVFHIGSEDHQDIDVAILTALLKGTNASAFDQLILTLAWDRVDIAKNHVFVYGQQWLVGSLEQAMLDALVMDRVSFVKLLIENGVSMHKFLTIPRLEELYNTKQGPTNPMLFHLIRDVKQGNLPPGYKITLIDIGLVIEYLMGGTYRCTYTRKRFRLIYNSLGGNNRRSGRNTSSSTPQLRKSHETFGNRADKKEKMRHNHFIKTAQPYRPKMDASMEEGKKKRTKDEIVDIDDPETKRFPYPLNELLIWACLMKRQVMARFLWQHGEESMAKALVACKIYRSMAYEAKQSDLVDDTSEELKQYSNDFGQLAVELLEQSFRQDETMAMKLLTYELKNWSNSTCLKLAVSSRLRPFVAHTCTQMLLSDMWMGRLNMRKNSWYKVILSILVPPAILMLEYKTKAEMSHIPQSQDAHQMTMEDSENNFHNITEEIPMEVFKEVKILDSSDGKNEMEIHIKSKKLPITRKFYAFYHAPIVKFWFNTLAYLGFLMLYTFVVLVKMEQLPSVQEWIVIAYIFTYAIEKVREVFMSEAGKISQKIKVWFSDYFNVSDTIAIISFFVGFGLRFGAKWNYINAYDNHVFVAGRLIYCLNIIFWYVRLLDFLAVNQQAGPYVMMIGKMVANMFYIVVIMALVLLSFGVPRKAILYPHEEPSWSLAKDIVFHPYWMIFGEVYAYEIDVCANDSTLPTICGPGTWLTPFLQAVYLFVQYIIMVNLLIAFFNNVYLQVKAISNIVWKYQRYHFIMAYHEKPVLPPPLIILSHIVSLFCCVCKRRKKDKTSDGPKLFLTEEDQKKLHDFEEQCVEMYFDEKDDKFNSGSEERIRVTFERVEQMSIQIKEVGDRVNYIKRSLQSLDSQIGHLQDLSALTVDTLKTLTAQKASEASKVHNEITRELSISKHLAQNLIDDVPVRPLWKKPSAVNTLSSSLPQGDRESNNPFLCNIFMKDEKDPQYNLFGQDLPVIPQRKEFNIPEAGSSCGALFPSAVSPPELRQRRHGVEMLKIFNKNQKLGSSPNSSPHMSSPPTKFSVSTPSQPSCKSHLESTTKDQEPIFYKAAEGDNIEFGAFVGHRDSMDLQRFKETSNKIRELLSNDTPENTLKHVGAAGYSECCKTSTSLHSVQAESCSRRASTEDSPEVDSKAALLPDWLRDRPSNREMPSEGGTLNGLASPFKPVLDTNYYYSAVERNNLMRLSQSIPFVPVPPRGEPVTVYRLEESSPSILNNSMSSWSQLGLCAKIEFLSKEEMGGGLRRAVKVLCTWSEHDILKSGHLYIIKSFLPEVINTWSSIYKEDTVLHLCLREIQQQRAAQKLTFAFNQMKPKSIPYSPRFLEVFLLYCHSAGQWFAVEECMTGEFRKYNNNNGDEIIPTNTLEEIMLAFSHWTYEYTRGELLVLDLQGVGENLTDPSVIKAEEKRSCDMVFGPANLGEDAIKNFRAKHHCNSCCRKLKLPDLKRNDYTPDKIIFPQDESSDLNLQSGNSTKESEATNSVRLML
# native TRPL channel = target: T2, native TRPL channel (Drosophila melanogaster, UniProt P48994); assay: Light induced current
# T2 sequence (P48994 1-1124): T1 sequence (P48994 1-1124)
# [4] = system: mock transfected HEK293 cells; assay: Control: mock transfected HEK293 cells, whole cell patch clamp; format: cell-based, Human; conditions: TRPM7 not expressed
# native TRP channel = target: T3, native TRP channel (Drosophila melanogaster, UniProt P19334); assay: Light induced current; conditions: WT photoreceptors, 6 min in the dark after application
# T3 sequence (P19334 1-1275): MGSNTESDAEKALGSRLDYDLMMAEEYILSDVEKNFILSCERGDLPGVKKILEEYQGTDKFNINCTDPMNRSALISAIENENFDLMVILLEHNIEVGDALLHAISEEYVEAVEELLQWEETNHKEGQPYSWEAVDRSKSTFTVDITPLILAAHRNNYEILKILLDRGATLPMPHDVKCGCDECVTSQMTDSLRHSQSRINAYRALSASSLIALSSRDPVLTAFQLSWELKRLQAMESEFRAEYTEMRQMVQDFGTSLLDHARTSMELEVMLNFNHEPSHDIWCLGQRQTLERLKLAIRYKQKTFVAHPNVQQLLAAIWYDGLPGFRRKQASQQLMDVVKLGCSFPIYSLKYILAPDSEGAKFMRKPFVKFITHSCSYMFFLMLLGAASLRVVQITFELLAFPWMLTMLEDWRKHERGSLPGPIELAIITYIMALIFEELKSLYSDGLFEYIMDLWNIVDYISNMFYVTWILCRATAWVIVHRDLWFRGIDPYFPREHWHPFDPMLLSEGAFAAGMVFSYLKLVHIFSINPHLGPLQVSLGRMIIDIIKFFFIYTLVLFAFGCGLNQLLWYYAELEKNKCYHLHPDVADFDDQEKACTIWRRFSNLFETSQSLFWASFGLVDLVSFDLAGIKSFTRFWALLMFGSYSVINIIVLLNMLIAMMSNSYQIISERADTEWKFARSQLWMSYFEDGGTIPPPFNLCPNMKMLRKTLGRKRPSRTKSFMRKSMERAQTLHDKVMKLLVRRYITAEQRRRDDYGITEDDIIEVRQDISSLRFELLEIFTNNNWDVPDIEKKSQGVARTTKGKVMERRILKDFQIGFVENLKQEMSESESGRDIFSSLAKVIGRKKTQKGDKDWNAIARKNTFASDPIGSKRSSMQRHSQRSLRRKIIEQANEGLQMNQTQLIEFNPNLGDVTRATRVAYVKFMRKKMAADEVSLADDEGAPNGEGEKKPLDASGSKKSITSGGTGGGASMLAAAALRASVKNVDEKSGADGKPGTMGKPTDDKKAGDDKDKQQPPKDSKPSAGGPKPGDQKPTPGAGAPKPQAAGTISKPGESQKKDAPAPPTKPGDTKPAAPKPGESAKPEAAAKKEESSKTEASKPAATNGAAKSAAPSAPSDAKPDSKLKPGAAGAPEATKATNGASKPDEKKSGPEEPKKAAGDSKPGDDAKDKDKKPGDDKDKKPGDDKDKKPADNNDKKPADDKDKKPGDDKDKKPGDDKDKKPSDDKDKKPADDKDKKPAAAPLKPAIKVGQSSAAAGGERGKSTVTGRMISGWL
# [5] = system: control hippocampal neurons; assay: Synaptic vesicle release; format: cell-based; conditions: 500μM
# mammalian TRPM7 = mammalian TRPM7 (Mus musculus, UniProt Q923J1); assay: Whole cell patch clamp of TRPM7 expressed in HEK293 cells; format: cell-based
# Sequence of mammalian TRPM7 (Q923J1 whole entry): as the sequence (Q923J1 whole entry) above
# TRPM8 = conditions: cited from earlier work
# Drosophila TRPL channel [6] = target: T1, Drosophila TRPL channel; conditions: Table 1; no own experiment shown; cited from earlier work
structure (smiles),measurement,setting,value
C=CCc1ccc(O)c(OC)c1 [Eugenol],Effect on TRPL-mediated current,Drosophila TRPL channel [1]; 3mM,large decrease in the TRPL-dependent current
same,TRPL Activation/Inhibition,Drosophila TRPL channel [1],Inhibition
CC1(C)C2CCC1(C)C(O)C2 (centres unmarked) [Borneol],Effect on current when TRPL was not expressed,[2],no effect
same,Effect on TRPL-mediated current,Drosophila TRPL channel [1]; 5mM (caffeic acid: up to 5mM),activated
same,TRPL Activation/Inhibition,Drosophila TRPL channel [1],Activation
same,Reversibility of effect on TRPL channel,Drosophila TRPL channel [1],completely reversible
C=C(C)C1CC=C(C)C(O)C1 (mixture of isomers) [Carveol],IC50,Drosophila TRPL channel [1],4.22 ± 0.4 mM
same,Effect on TRPL-mediated current,Drosophila TRPL channel [1]; 5mM (caffeic acid: up to 5mM),large decrease in the TRPL-dependent current
same,TRPL Activation/Inhibition,Drosophila TRPL channel [1],Inhibition
Cc1ccc(C(C)C)cc1O [Carvacrol],Effect on current when TRPL was not expressed,[2],no effect
same,ΔF median of boutons after application,[3]; before application 73,75 arbitrary units (a.u)
same,Number of FM detectable boutons after application,[3]; before application 578,318
same,Effect on amplitude of the LIC (native TRPL),"native TRPL channel; 500μM, trp^P343 mutant photoreceptor",dramatic reduction
same,Requirement of light stimulation for inhibition of native TRPL,"native TRPL channel; carvacrol applied in the dark, trp^P343",does not require light stimulation
same,Effect on current in mock transfected HEK293 cells,[4],no effect
same,Effect on TRPL-mediated current,Drosophila TRPL channel [1]; 500μM,Large suppression of the current
same,TRPL Activation/Inhibition,Drosophila TRPL channel [1],Inhibition
same,Reversibility of effect on TRPL channel,Drosophila TRPL channel [1],reversibly blocked
same,Effect on LIC of WT flies (TRP channel),native TRP channel,inhibits
same,Effect on presynaptic activity in control neurons,[5],did not affect
same,ΔF median of boutons after application,[5]; before application 88,87 arbitrary units
same,Number of FM detectable boutons after application,[5]; before application 764,845
same,Effect on TRPM7 mediated current,mammalian TRPM7; 500μM,dramatic decrease
same,Reversibility of block of TRPM7,mammalian TRPM7; HEK293 cells,reversibly blocked
same,Effect on TRPM8,TRPM8,only a minimal effect
Cc1ccc(C(C)C)c(O)c1 [Thymol],Effect on TRPL-mediated current,Drosophila TRPL channel [1]; 1mM,large decrease in the TRPL-dependent current
same,TRPL Activation/Inhibition,Drosophila TRPL channel [1],Inhibition
CC12CCC(CC1=O)C2(C)C (centres unmarked) [Camphor],Effect on TRPL-mediated current,Drosophila TRPL channel [1]; 10mM,activated
same,TRPL Activation/Inhibition,Drosophila TRPL channel [1],Activation
CC1CCC(C(C)C)C(O)C1 (centres unmarked) [Menthol],IC50,Drosophila TRPL channel [1],1.81 ± 0.13 mM
same,Effect on TRPL-mediated current,Drosophila TRPL channel [1]; 5mM (caffeic acid: up to 5mM),large decrease in the TRPL-dependent current
same,TRPL Activation/Inhibition,Drosophila TRPL channel [1],Inhibition
"NCCOB(c1ccccc1)c1ccccc1 [2-APB, 2-Aminoethoxydiphenyl borate]",TRPL Activation/Inhibition,Drosophila TRPL channel [6],Inhibition
O=C/C=C/c1ccccc1 [Cinnamaldehyde],Effect on TRPL-mediated current,Drosophila TRPL channel [1]; 2mM,decrease in the TRPL mediated current
same,TRPL Activation/Inhibition,Drosophila TRPL channel [1],Inhibition
same,Reversibility of effect on TRPL channel,Drosophila TRPL channel [1],reversible
O=C(O)/C=C/c1ccc(O)c(O)c1 [Caffeic acid],Effect on TRPL-mediated current,Drosophila TRPL channel [1]; 5mM (caffeic acid: up to 5mM),did not block
same,TRPL Activation/Inhibition,Drosophila TRPL channel [1],No effect
